Measurements from publication PMC11239005, “Preclinical studies of RA475, a guanidine-substituted spirocyclic candidate RPN13/ADRM1 inhibitor for treatment of ovarian cancer” (PLOS ONE, 2024).

What was measured:
[1] = Stability in human liver microsomes; type: in vitro ADME; settings: with or without NADPH, over 1 h
Description: Human and mouse liver microsomes and NADPH regenerating system solutions were purchased from Corning Life Sciences (Tewsbury, MA). Human and mouse K2EDTA-treated plasma was purchased from BioIVT (Westbury, NY). Metabolic studies in liver microsomes (0.125 mg/mL) were conducted in 1x PBS (pH 7.4), NADPH-generating system, and 10 μM RA475 in a final volume of 250 μL. An incubation mixture with or without NADPH-generating system, as well as a neat solution prepared without microsomes and NADPH-generating system was used. RA475 was added at the same concentration level into human and mouse EDTA plasma. All reactions were initiated with the addition of RA475. Incubations were performed in glass tubes maintained at 37°C in a shaker bath. At 0, 30, and 60 min, 10 μL samples were withdrawn from the reaction mixture, and 0.5 mL of acetonitrile containing internal standard was added to each. Samples were vortex-mixed and subjected to centrifugation for 5 min at 1430 x g. A 10 μL aliquot of the supernatant was injected onto the LC-MS/MS instrument for qualitative analysis using a temperature-controlled autosampling device operating at 5°C (See Pharmacokinetic section).

[2] = Human plasma protein binding, equilibrium dialysis; type: in vitro ADME; settings: pH 7.4, dialysis 5 h
Description: The assay was performed in a multiple-use 96-well dialysis unit (HTD96b dialyzer). Each individual well unit consisted of 2 chambers separated by a vertically aligned dialysis membrane of predetermined pore size (MWCO 12–14 kDa). 120 μL of non-diluted plasma spiked with the compound (1 μM, final DMSO concentration 1%) was added to one chamber, and the same volume of PBS buffer pH 7.4 to the other chamber. The HTD96b dialyzer was covered with adhesive sealing film and incubated 5 h at 37°C while shaking at 100 rpm. For sample preparation, an aliquot of the contents of each chamber was mixed with the same volume of the blank opposite matrix. In order to define non-specific loss of the compound during this assay, a standard solution was created by mixing an aliquot of spiked plasma with blank buffer without dialysis. Two aliquots of the standard solution were incubated at 37°C, shaking at 100 rpm for 5 h (recovery samples). The other two aliquots were immediately diluted with acetonitrile and stored at 4°C until analysis (stability samples). All samples were diluted 5-fold with internal standard diluted in 100% methanol with subsequent plasma proteins sedimentation by centrifuging at 6000 rpm for 5 minutes. Supernatants were analyzed using LC-MS/MS. The percentage of plasma protein bound compound, recovery and stability were calculated using following equations. […]

[3] = system: spontaneous genetically-engineered peritoneal tumor (shp53, AKT, c-Myc); experiment: Spontaneous GEMM of primary peritoneal/ovarian cancer; type: in vivo, mouse; settings: C57BL/6
Description: To induce IP tumor formation in immunocompetent mice, oncogenes (shp53, AKT, c-Myc), luciferase and the Sleeping Beauty (SB) transposase (10 μg/plasmid) were diluted in 500 μL of PBS and injected IP into female C57BL/6 mice. The mice were anesthetized by intramuscular injection of 50–100μL of a cocktail of ketamine 16 mg/mL / 3 mg/mL xylazine. The plasmid-injected mice were electroporated (EP) by the BTX ECM 830 square wave EP generator (BTX) (5 pulses, 200 V for 100 ms/pulse, 100 ms intervals between each pulse) with the caliper electrode (BTX) held across the waist of mouse. The mice were followed by IVIS imaging weekly for tracking tumor growth. The mice were sacrificed when the bioluminescence signal reached 10^9 photons/sec/cm^2/sr, or had enlarged abdomens due to the production of ascites, or had health conditions and/or criteria under which early euthanasia was required by the protocol. To track peritoneal tumor growth, bioluminescence imaging was performed by the IVIS Spectrum2000 (PerkinElmer) as the plasmid expressing SB transposase also produces luciferase. Briefly, the mice were injected IP with D-luciferin (GoldBio). After 10 min, the mice were anesthetized with isoflurane, and imaged by the IVIS Spectrum under the auto exposure mode. Bioluminescence in the peritoneal region was quantified as total photon counts/sec/cm^2/sr using Living Image 3.0 Software (Perkin Elmer).
GEMM better mimic the spontaneous development of cancers in an immune competent host than transplantable tumor lines. Female C57BL/6 mice were co-injected IP with sleeping beauty vector and plasmids expressing carrying shp53, AKT, c-Myc and firefly luciferase genes, followed by electroporation (EP) to deliver these plasmid DNA into the peritoneal cavity cells wherein they integrate randomly into their genome. After 7 days mice were imaged by IVIS200 for bioluminescence and randomized. Four groups (n = 8) were treated IP with vehicle or RA475 (40mg/kg, IP, every 3 days) or Cisplatin (5 mg/Kg, once a week) or the combination of RA475 (40mg/Kg, IP, every 3 days) plus Cisplatin (5 mg/Kg, once a week). […] While cisplatin reduced tumor growth, it led to severe toxicity including weight loss >20% that was not evident with RA475 alone.
Fig 7 Administration of RA475, cisplatin or the combination to mice bearing spontaneous, genetically-engineered model ovarian/peritoneal cancer. Female C57BL/6 mice were co-injected IP with sleeping beauty vector and plasmids expressing carrying shp53, AKT, c-Myc and firefly luciferase genes, followed by electroporation (EP) to deliver these plasmid DNA into the peritoneal cavity cells wherein they integrate randomly into their genome. After 7 days mice were imaged by Xenogen IVIS200 for bioluminescence and randomized. […]

[4] = 1 h; Up284 not in this paper's method, no reference at the place; cited from earlier work
[5] = RA475 40 mg/kg IP every 3 days (12 doses), cisplatin 5 mg/Kg weekly (5 doses alone, 3 in combination)

| SMILES | degradation in liver microsomes [1] [%] | fraction unbound at 5 h, 1 μM [2] | survival [3, 5] | tumor burden by bioluminescence [3, 5] | weight loss ([3]; RA475 40 mg/kg IP every 3 days, cisplatin 5 mg/Kg weekly) | present after 1 h in liver microsomes [4] [%] |
| --- | --- | --- | --- | --- | --- | --- |
| Cl.Cl.N#Cc1ccc(/C=C2/C(=O)/C(=C/c3ccc(C#N)cc3)C23CCN(C(=N)N)CC3)cc1 [RA475, 1,3-bis((E)-4-cyanobenzylidene)-2-oxo-7-azaspiro[3.5]nonane-7-carboximidamide dihydrochloride] | < 10 | 0.009 | extended survival to a similar extent as cisplatin alone | delayed but did not significantly reduce tumor burden | not evident | – |
| N#Cc1ccc(/C=C2/C(=O)/C(=C/c3ccc(C#N)cc3)C23CCNCC3)cc1 [Up284, reference compound] | – | – | – | – | – | 52 |
